The record followed here is article PMC8583781, “Identification and Functional Analysis of a Pseudo-Cysteine Protease from the Midgut Transcriptome of Sphenophorus levis” (International Journal of Molecular Sciences, 2021).

This assay deals with T1, Sl-CathL-mutSC.
T1 construct: ORF of Sl-CathL-CS (GenBank JZ136744.1) without signal peptide, C-terminal 6x His tag, expressed in P. pastoris KM71H
The assay is described as follows: fluorogenic protease assay (AMC release), Ki by Morrison equation. The format is biochemical, Sphenophorus levis.

In the case of `CC(C)C[C@H](NC(=O)[C@H]1O[C@@H]1C(=O)O)C(=O)NCCCCN=C(N)N` [E-64], affinity was put at a Ki of 38.5 ± 1.2 µM.
